Values belong to the compound of their own block, whether it stands above or below them.
Tests used:
[1] = test system: rat peripheral venous thrombosis; assay: Antithrombotic activity, rat peripheral venous thrombosis in closed abdominal part of vena cava; format: in vivo; settings: po, rats, orally, read-out: statistically significant effective dose (mass of thrombi)
Method: The antithrombotic activity of the test compounds was established using the model of rat peripheral venous thrombosis in a closed abdominal part of vena cava. The thrombus was induced by intravenous administration of hypotonic solution of sodium chloride. The thrombus was freed 10 minutes after induction and weighted. The mass of thrombi in control animals was compared to the mass of thrombi of animals administered by the test compound. The statistically significant effective dose for compound VUFB 17951 was 0.5 mg/kg intravenously and 5 mg/kg orally and for the compound VUFB 17959 0.25 mg/kg and 1.0 mg/kg, respectively. The corresponding dose of a standard (Cilostazol, generic name, Merck index, 11th Edition, 2277) was 25 mg/kg orally.

blood pressure [2] = assay: Hypotensive activity, pentobarbital anaesthesized dogs; format: in vivo, dog; settings: i.v.
Text: (§1) b) The blood pressure of pentobarbital anaesthesized dogs was registered invasively in arteria femoralis. The average decrease in systolic (SBP) arid diastolic (DBP) blood pressure expressed in per cents of the starting blood pressure level after intravenous and oral administration is shown in Tables 5 and 6.

calcium channel = target: T1, calcium channel (Rattus norvegicus, UniProt P22002); assay: Calcium channel blocking activity, K+ depolarization-induced contraction of helically cut rat aortic strip; settings: Krebs-Henselheit solution, 37° C., cumulative doses, read-out: IC50 (50% decrease of contraction of the aortic strip)
T1 construct: helically cut rat aortic strip; from tissue; host or cells: rat aorta (helically cut strip)
T1 sequence (P22002 whole entry): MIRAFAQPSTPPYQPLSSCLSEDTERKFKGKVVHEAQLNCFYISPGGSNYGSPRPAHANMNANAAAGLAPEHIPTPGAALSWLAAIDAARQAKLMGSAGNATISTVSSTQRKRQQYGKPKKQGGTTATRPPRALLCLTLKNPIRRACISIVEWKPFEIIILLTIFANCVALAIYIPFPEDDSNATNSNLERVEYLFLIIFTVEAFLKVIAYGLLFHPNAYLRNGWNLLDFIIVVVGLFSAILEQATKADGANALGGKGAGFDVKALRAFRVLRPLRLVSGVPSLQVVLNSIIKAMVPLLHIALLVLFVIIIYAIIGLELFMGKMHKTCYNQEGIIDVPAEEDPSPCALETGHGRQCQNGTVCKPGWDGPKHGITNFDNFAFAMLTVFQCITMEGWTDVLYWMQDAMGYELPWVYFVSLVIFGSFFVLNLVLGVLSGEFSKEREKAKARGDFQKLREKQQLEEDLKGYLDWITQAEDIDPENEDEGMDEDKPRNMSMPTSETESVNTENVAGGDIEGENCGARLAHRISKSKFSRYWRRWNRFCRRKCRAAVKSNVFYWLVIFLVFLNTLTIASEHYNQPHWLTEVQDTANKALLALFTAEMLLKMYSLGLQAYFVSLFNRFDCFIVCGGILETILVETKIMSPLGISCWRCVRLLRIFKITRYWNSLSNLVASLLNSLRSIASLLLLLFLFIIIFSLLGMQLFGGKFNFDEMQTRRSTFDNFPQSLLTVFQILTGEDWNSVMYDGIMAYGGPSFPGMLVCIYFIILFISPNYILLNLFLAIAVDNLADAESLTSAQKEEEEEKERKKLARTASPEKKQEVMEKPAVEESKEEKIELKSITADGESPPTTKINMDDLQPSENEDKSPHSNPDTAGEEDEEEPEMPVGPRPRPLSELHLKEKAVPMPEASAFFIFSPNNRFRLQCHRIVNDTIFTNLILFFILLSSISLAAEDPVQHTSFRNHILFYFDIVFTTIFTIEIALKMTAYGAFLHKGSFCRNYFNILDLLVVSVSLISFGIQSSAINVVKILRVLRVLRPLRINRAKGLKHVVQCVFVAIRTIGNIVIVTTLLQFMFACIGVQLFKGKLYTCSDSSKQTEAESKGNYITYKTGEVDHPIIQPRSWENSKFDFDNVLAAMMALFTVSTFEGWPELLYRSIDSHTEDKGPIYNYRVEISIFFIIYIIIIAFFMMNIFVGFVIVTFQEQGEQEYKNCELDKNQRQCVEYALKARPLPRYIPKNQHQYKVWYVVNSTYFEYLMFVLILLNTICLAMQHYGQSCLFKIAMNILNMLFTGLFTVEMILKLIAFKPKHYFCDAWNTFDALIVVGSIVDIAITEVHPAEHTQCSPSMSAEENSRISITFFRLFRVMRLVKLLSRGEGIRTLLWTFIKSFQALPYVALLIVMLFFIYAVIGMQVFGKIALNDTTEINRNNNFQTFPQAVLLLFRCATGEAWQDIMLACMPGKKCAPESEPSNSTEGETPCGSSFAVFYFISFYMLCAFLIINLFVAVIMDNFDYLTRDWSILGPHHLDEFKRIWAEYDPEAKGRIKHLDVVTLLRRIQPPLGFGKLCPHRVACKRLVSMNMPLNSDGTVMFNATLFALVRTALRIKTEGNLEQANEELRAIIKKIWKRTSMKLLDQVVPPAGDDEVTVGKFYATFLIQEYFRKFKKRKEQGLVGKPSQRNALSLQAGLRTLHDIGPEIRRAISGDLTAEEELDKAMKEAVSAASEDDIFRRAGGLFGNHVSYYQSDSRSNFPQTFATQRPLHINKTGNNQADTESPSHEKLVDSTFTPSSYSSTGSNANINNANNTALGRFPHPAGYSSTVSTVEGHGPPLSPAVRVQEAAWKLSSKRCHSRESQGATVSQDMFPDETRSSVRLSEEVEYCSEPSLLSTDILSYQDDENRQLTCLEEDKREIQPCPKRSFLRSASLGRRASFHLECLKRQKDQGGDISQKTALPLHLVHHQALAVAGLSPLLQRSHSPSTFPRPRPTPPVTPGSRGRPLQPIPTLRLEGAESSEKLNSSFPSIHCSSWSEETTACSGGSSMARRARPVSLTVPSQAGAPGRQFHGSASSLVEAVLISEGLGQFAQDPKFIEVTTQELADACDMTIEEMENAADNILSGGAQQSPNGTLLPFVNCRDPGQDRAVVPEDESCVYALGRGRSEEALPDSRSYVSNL
T1 sequence (P54290 25-1091 partner): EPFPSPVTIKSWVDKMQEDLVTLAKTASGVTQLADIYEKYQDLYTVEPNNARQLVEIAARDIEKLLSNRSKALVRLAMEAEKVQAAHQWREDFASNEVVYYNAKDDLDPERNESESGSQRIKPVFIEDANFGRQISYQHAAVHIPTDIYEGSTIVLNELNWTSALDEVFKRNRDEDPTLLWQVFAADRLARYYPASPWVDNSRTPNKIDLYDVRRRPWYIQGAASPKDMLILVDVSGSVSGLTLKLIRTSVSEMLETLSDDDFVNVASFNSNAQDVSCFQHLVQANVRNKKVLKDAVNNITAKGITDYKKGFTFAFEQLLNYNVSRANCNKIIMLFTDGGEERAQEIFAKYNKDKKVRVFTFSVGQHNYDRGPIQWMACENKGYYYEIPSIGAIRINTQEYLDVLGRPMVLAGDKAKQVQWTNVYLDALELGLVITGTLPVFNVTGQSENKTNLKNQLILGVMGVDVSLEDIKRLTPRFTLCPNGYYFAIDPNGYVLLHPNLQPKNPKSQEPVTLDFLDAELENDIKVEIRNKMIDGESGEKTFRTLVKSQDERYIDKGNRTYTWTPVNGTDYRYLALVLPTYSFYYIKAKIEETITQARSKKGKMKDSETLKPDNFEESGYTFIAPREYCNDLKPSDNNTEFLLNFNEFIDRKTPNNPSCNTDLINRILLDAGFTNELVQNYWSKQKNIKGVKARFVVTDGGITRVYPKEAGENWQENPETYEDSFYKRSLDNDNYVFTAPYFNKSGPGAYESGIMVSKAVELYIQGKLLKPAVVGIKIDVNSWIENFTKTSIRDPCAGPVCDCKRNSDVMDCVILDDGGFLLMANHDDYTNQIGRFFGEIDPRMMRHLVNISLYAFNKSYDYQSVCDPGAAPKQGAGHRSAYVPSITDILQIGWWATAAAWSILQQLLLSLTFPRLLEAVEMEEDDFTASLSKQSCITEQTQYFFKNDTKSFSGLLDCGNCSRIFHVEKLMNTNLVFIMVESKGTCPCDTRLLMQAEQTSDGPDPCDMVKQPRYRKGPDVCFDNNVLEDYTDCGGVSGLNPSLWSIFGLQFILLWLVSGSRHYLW
Method: The calcium channel blocking activity of the compounds was tested using a helically cut rat aortic strip in Krebs-Henselheit solution at 37° C., bubbled with a mixture of 95% O2 and 5% CO2. The isometrically registered contractions were induced by K^(+). depolarization. The test compounds were applied in a cumulative doses and the vasodilating activity thereof was expressed in calculated concentration of the test compound, causing 50% decrease of contraction of the aortic strip (IC50).

α-adrenergic = target: T2, α-adrenergic (Rattus norvegicus, UniProt P23944); assay: α-adrenergic blocking activity, norepinephrine-induced contraction of helically cut rat aortic strip; settings: 37° C., cumulative doses, read-out: IC50 (concentration causing 50% relaxation)
T2 construct: helically cut rat aortic strip; from tissue; host or cells: rat aorta (helically cut strip)
T2 sequence (P23944 1-561): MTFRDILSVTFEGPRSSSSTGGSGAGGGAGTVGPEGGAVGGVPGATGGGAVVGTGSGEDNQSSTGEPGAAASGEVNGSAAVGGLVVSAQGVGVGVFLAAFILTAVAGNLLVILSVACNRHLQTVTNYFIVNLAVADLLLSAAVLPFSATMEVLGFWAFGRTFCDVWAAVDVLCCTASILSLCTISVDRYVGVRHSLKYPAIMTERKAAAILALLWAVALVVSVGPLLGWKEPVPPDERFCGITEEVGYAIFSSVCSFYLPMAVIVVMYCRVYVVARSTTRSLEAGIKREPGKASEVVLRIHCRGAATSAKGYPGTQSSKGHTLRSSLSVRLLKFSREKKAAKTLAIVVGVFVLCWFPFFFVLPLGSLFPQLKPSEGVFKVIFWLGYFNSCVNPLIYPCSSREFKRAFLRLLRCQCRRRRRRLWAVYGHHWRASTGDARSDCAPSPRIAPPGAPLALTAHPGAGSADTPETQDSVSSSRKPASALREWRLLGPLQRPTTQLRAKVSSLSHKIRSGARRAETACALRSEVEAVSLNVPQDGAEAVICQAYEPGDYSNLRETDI
Method: a) The α-adrenergic blocking activity of the compounds was tested using a helically cut rat aortic strip in a Krebs-Henselheit solution at 37° C., bubbled with a mixture of 95% O2 and 5% CO2. Norepinephrine induced contractions were detected isometrically. The compounds were added in cumulative doses and the relaxing activity was expressed in per cents of the maximum norepinephrine contraction.

blood pressure [3] = assay: Hypotensive activity, pentobarbital anaesthesized rabbits; format: in vivo, rabbit; settings: i.v.
Text: as §1, with “a)” for “b)”, “rabbits” for “dogs”, “and” for “arid”, “3” for “5”, “4.” for “6.”

[4] = 4.5 mg/kg, value 1 of 5 (heads 5/30/60/180 min; probably 1 min)
[5] = 4.5 mg/kg, value 2 of 5 (heads 5/30/60/180 min; probably 5 min)
[6] = 4.5 mg/kg, value 3 of 5 (heads 5/30/60/180 min; probably 30 min)
[7] = 4.5 mg/kg, value 4 of 5 (heads 5/30/60/180 min; probably 60 min)
[8] = 4.5 mg/kg, value 5 of 5 (heads 5/30/60/180 min; probably 180 min)
[9] = 0.4 mg/kg, value 1 of 5 (heads 5/30/60/180 min; probably 1 min)
[10] = 0.4 mg/kg, value 2 of 5 (heads 5/30/60/180 min; probably 5 min)
[11] = 0.4 mg/kg, value 3 of 5 (heads 5/30/60/180 min; probably 30 min)
[12] = 0.4 mg/kg, value 4 of 5 (heads 5/30/60/180 min; probably 60 min)
[13] = 0.4 mg/kg, value 5 of 5 (heads 5/30/60/180 min; probably 180 min)
[14] = 4.0 mg/kg, value 1 of 5 (heads 5/30/60/180 min; probably 1 min)
[15] = 4.0 mg/kg, value 2 of 5 (heads 5/30/60/180 min; probably 5 min)
[16] = 4.0 mg/kg, value 3 of 5 (heads 5/30/60/180 min; probably 30 min)
[17] = 4.0 mg/kg, value 4 of 5 (heads 5/30/60/180 min; probably 60 min)
[18] = 4.0 mg/kg, value 5 of 5 (heads 5/30/60/180 min; probably 180 min)
[19] = 4.6 mg/kg, value 1 of 5 (heads 5/30/60/180 min; probably 1 min)
[20] = 4.6 mg/kg, value 2 of 5 (heads 5/30/60/180 min; probably 5 min)
[21] = 4.6 mg/kg, value 3 of 5 (heads 5/30/60/180 min; probably 30 min)
[22] = 4.6 mg/kg, value 4 of 5 (heads 5/30/60/180 min; probably 60 min)
[23] = 4.6 mg/kg, value 5 of 5 (heads 5/30/60/180 min; probably 180 min)

IC50 (α-adrenergic): 76 µM
IC50 (calcium channel): 8.5 µM
SMILES: CC(C)C(C#N)(CCCNCC1COc2ccccc2O1)c1ccccc1 (racemic) [VUFB 18087, 5-(2,3-dihydro-1,4-benzodioxin-2-ylmethylamino)-2-phenyl-2-isopropyl valeronitrile]
decrease in diastolic blood pressure (DBP) (blood pressure [2]; [9]): -37 per cents
decrease in systolic blood pressure (SBP) (blood pressure [2]; [9]): -33 per cents
decrease in diastolic blood pressure (DBP) (blood pressure [2]; [10]): -27 per cents
decrease in systolic blood pressure (SBP) (blood pressure [2]; [10]): -29 per cents
decrease in diastolic blood pressure (DBP) (blood pressure [2]; [11]): -27 per cents
decrease in systolic blood pressure (SBP) (blood pressure [2]; [11]): -29 per cents
decrease in diastolic blood pressure (DBP) (blood pressure [2]; [12]): -13 per cents
decrease in systolic blood pressure (SBP) (blood pressure [2]; [12]): -19 per cents
decrease in diastolic blood pressure (DBP) (blood pressure [2]; [13]): -13 per cents
decrease in systolic blood pressure (SBP) (blood pressure [2]; [13]): -4 per cents
decrease in diastolic blood pressure (DBP) (blood pressure [2]; [14]): -62 per cents
decrease in systolic blood pressure (SBP) (blood pressure [2]; [14]): -49 per cents
decrease in diastolic blood pressure (DBP) (blood pressure [2]; [15]): -31 per cents
decrease in systolic blood pressure (SBP) (blood pressure [2]; [15]): -32 per cents
decrease in diastolic blood pressure (DBP) (blood pressure [2]; [16]): -31 per cents
decrease in systolic blood pressure (SBP) (blood pressure [2]; [16]): -31 per cents
decrease in diastolic blood pressure (DBP) (blood pressure [2]; [17]): -26 per cents
decrease in systolic blood pressure (SBP) (blood pressure [2]; [17]): -27 per cents
decrease in diastolic blood pressure (DBP) (blood pressure [2]; [18]): -26 per cents
decrease in systolic blood pressure (SBP) (blood pressure [2]; [18]): -22 per cents
decrease in diastolic blood pressure (DBP) (blood pressure [3]; 0.4 mg/kg, 1 min): -32 per cents
decrease in systolic blood pressure (SBP) (blood pressure [3]; 0.4 mg/kg, 1 min): -10 per cents
decrease in diastolic blood pressure (DBP) (blood pressure [3]; 0.4 mg/kg, 5 min): -16 per cents
decrease in systolic blood pressure (SBP) (blood pressure [3]; 0.4 mg/kg, 5 min): -19 per cents
decrease in diastolic blood pressure (DBP) (blood pressure [3]; 0.4 mg/kg, 30 min): -18 per cents
decrease in systolic blood pressure (SBP) (blood pressure [3]; 0.4 mg/kg, 30 min): -17 per cents
decrease in diastolic blood pressure (DBP) (blood pressure [3]; 0.4 mg/kg, 60 min): -16 per cents
decrease in systolic blood pressure (SBP) (blood pressure [3]; 0.4 mg/kg, 60 min): -17 per cents
decrease in diastolic blood pressure (DBP) (blood pressure [3]; 0.4 mg/kg, 180 min): -8 per cents
decrease in systolic blood pressure (SBP) (blood pressure [3]; 0.4 mg/kg, 180 min): -14 per cents
decrease in diastolic blood pressure (DBP) (blood pressure [3]; 4.0 mg/kg, 1 min): -58 per cents
decrease in systolic blood pressure (SBP) (blood pressure [3]; 4.0 mg/kg, 1 min): -45 per cents
decrease in diastolic blood pressure (DBP) (blood pressure [3]; 4.0 mg/kg, 5 min): -43 per cents
decrease in systolic blood pressure (SBP) (blood pressure [3]; 4.0 mg/kg, 5 min): -45 per cents
decrease in diastolic blood pressure (DBP) (blood pressure [3]; 4.0 mg/kg, 30 min): -29 per cents
decrease in systolic blood pressure (SBP) (blood pressure [3]; 4.0 mg/kg, 30 min): -30 per cents
decrease in diastolic blood pressure (DBP) (blood pressure [3]; 4.0 mg/kg, 60 min): -29 per cents
decrease in systolic blood pressure (SBP) (blood pressure [3]; 4.0 mg/kg, 60 min): -31 per cents
decrease in diastolic blood pressure (DBP) (blood pressure [3]; 4.0 mg/kg, 180 min): -32 per cents
decrease in systolic blood pressure (SBP) (blood pressure [3]; 4.0 mg/kg, 180 min): -28 per cents

IC50 (calcium channel): 16 µM
SMILES: COc1ccc(C(C#N)(CCCNCC2COc3ccccc3O2)C(C)C)cc1OC (single isomer, unassigned) [VUFB 18019, 5-[(+)-2,3-dihydro-1,4-benzodioxin-2-ylmethylamino]-2-(3,4-dimethoxyphenyl)-2-isopropyl valeronitrile]
decrease in diastolic blood pressure (DBP) (blood pressure [2]; [19]): -54 per cents
decrease in systolic blood pressure (SBP) (blood pressure [2]; [19]): -17 per cents
decrease in diastolic blood pressure (DBP) (blood pressure [2]; [20]): -32 per cents
decrease in systolic blood pressure (SBP) (blood pressure [2]; [20]): -32 per cents
decrease in diastolic blood pressure (DBP) (blood pressure [2]; [21]): -8 per cents
decrease in systolic blood pressure (SBP) (blood pressure [2]; [21]): -26 per cents
decrease in diastolic blood pressure (DBP) (blood pressure [2]; [22]): -14 per cents
decrease in systolic blood pressure (SBP) (blood pressure [2]; [22]): -16 per cents
decrease in diastolic blood pressure (DBP) (blood pressure [2]; [23]): -8 per cents
decrease in systolic blood pressure (SBP) (blood pressure [2]; [23]): -14 per cents

IC50 (calcium channel): 25 µM
SMILES: COc1ccc(C(C#N)(CCCNCC2COc3ccccc3O2)C(C)C)cc1OC (single isomer, unassigned) [VUFB 18020, 5-[(-)-2,3-dihydro-1,4-benzodioxin-2-ylmethylamino]-2-(3,4-dimeth-oxyphenyl)-2-isopropyl valeronitrile]
decrease in diastolic blood pressure (DBP) (blood pressure [2]; [19]): -63 per cents
decrease in systolic blood pressure (SBP) (blood pressure [2]; [19]): -46 per cents
decrease in diastolic blood pressure (DBP) (blood pressure [2]; [20]): -63 per cents
decrease in systolic blood pressure (SBP) (blood pressure [2]; [20]): -58 per cents
decrease in diastolic blood pressure (DBP) (blood pressure [2]; [21]): -45 per cents
decrease in systolic blood pressure (SBP) (blood pressure [2]; [21]): -43 per cents
decrease in diastolic blood pressure (DBP) (blood pressure [2]; [22]): -37 per cents
decrease in systolic blood pressure (SBP) (blood pressure [2]; [22]): -35 per cents
decrease in diastolic blood pressure (DBP) (blood pressure [2]; [23]): -34 per cents
decrease in systolic blood pressure (SBP) (blood pressure [2]; [23]): -40 per cents

Further lines, the compound ahead of its results:

SMILES: O=C1CCc2cc(OCCCCc3nnnn3C3CCCCC3)ccc2N1 [Cilostazol, reference compound]
minimal effective dose [1]: 25 mg/kg

SMILES: Cc1ccccc1C(C#N)(CCCNCC1COc2ccccc2O1)C(C)C (single isomer, unassigned) [VUFB 18007, 5-[(+)-2,3-dihydro-1,4-benzodioxin-2-ylmethylamino]-2-isopropyl-2- -(2-methylphenyl) valeronitrite]
decrease in diastolic blood pressure (DBP) (blood pressure [2]; [4]): -66 per cents
decrease in systolic blood pressure (SBP) (blood pressure [2]; [4]): -47 per cents
decrease in diastolic blood pressure (DBP) (blood pressure [2]; [5]): -41 per cents
decrease in systolic blood pressure (SBP) (blood pressure [2]; [5]): -33 per cents
decrease in diastolic blood pressure (DBP) (blood pressure [2]; [6]): -25 per cents
decrease in systolic blood pressure (SBP) (blood pressure [2]; [6]): -27 per cents
decrease in diastolic blood pressure (DBP) (blood pressure [2]; [7]): -19 per cents
decrease in systolic blood pressure (SBP) (blood pressure [2]; [7]): -22 per cents
decrease in diastolic blood pressure (DBP) (blood pressure [2]; [8]): -12 per cents
decrease in systolic blood pressure (SBP) (blood pressure [2]; [8]): -17 per cents
IC50 (calcium channel): 15 µM

SMILES: Cc1ccccc1C(C#N)(CCCNCC1COc2ccccc2O1)C(C)C (single isomer, unassigned) [VUFB 18018, 5-[(-)-2,3-dihydro-1,4-benzodioxin-2-ylmethylamino]-2-isopropyl-2- -(2-methylphenyl) valeronitrile]
decrease in diastolic blood pressure (DBP) (blood pressure [2]; [4]): -54 per cents
decrease in systolic blood pressure (SBP) (blood pressure [2]; [4]): -40 per cents
decrease in diastolic blood pressure (DBP) (blood pressure [2]; [5]): -46 per cents
decrease in systolic blood pressure (SBP) (blood pressure [2]; [5]): -42 per cents
decrease in diastolic blood pressure (DBP) (blood pressure [2]; [6]): -29 per cents
decrease in systolic blood pressure (SBP) (blood pressure [2]; [6]): -30 per cents
decrease in diastolic blood pressure (DBP) (blood pressure [2]; [7]): -24 per cents
decrease in systolic blood pressure (SBP) (blood pressure [2]; [7]): -22 per cents
decrease in diastolic blood pressure (DBP) (blood pressure [2]; [8]): -22 per cents
decrease in systolic blood pressure (SBP) (blood pressure [2]; [8]): -21 per cents
IC50 (calcium channel): 15 µM
